Assays:
Melanoma B16 cells = experiment: Animal model of metastasis to bone, Melanoma B16 cells transplanted to the left ventricle; format: in vivo, C57BL/6 mice; details: oral 1 mg per kg per day
Protocol: The therapeutic effect and inhibitory effect against metastasis in an animal model of metastasis to bone were evaluated in the following manner. Initially, a test animal was anaesthetized with thiamylal, the precordia was disinfected with iodine and 70% ethanol and was incised to 1 cm along with the midline to expose the ribs. The second interspace of the left sternum was needled to a depth of 2 mm with a needle of a tuberculin syringe 30 G. After observing that fresh blood came up into the syringe, cultured tumor cells in an amount of 10^4 cells in 0.1 mL were injected over one minute or longer. At the time when the animal (mouse) was weakened or paralyzed, the mouse was killed with ether anesthesia, and evaluation was conducted (refer to F. Arguello et al.: A Murine Model of Experimental Metastasis to Bone and Bone Marrow. “Cancer Research”: 1988, 48: 6876-6881).
Melanoma B16 cells (10^4/0.1 mL) were transplanted to the left ventricle of 8-week old female C57BL/6 mice (12 mice per group). […] At the time three weeks after the transplantation when the mice were weakened or paralyzed, the mice were killed under inhalation with ether, the target organs were fixed with 10% formalin, and evaluation of tumor metastasis was conducted.

[1] = tested on: murine colorectal cancer Colon 26; experiment: Liver metastasis model of murine colorectal cancer Colon 26 (spleen transplantation), survival; format: in vivo, CDF1 mice
From the text: When cancer cells are transplanted into the spleen of mice, metastatic cancer is selectively formed in the liver. Use of this model enables various therapeutic experiments in order to control metastasis to liver (refer to MORIKAWA, Kiyoshi, Nude Mouse Spleen Transplantation Method as Human Cancer Liver Metastasis Model, “Oncologia”: 1989, 22(2): p. 100-102, and L. Kopper et al.: Experimental Model for Liver Metastasis Formation Using Lewis Lung Tumor.: “Journal of Cancer Research Clinical Oncology”: 1982, 103: p31-38).
Specifically, a liver metastasis model of murine colorectal cancer Colon 26 was established using 6-week old CDF1 mice. The therapeutic and inhibitory activities were assayed using, as an index, the ratio (life prolongation rate; T/C percentage) of the survival time of a drug-administered group (10 mice per group) to the survival time of a non-drug-administered (control) group (10 mice per group). In the drug-administered group, cisplatin as a platinum complex was dissolved in physiological saline and was orally administered. In the control group, physiological saline alone was orally administered.

[2] = tested on: Human large cell lung carcinoma LC-1 cells; experiment: Tumor growth delay in nude mice with human large cell lung carcinoma LC-1; format: in vivo, BALB/cA-nu/nu mice; details: for Tumor Growth Delay Percentage: total 20 mg per kg
Protocol: As an index of the effect, the tumor growth delay percentage (%) was determined by calculation according to the following equation: Tumor Growth Delay Percentage(%)=(A−B)/B×100 (1)
wherein “A” represents the number of days required for the tumor to increase in its volume as much as 8 times in each cisplatin-administered group; and “B” represents the number of days required for the tumor to increase in its volume as much as 8 times in the control group. In addition, blood urea nitrogen (BUN) was measured as an index of nephrotoxicity.

[3] = tested on: Human multiple myeloma U266 cells; experiment: Bone metastasis model of human multiple myeloma U266 in NOG mice, serum hIgE level; format: in vivo, NOD/SCID/γc^null (NOG) mice
Protocol: The therapeutic and inhibitory effects of combination use with a bisphosphonate against metastasis in an animal model of metastasis to bone were evaluated in the following manner. Human multiple myeloma U266 cells in an amount of 2×10^6 in 0.2 ml were transplanted to NOD/SCID/γc^null (NOG) mice through their tail vein (10 mice per group). […] 21 days after the transplantation, Aredia containing pamidronate, one of bisphosphonates, as an active ingredient was orally administered at a dose of 1 mg per kg per day for consecutive 8 days (Aredia group). […] 29 days after the tumor transplantation, the human IgE (hIgE) level in the serum was measured, and the therapeutic effect against metastasis to bone was determined (refer to Y. Miyakawa et al.: Establishment of a new model of human multiple myeloma using NOD/SCID/γc^null (NOG) mice. “Biochemical and Biophysical Research Communication”: 2004, 313: 258-262).

[4] = three weeks after transplantation, control 9/10

## N.N.[Cl][Pt][Cl] [Cisplatin, cisplatin]
Melanoma B16 cells
  Inhibition of metastasis to bone (in words): significantly inhibits metastasis to bone
Melanoma B16 cells; three weeks after transplantation, control 0/10
  Number of mice where metastasis was observed: Vertebral Column, Cervical Region: 0/10
Melanoma B16 cells; three weeks after transplantation, control 4/10
  Number of mice where metastasis was observed: Pectoral Region, Breast Bone: 2/10
Melanoma B16 cells; three weeks after transplantation, control 6/10
  Number of mice where metastasis was observed: Vertebral Column, Sacral Spine: 1/10
Melanoma B16 cells; three weeks after transplantation, control 7/10
  Number of mice where metastasis was observed: Pectoral Region, Blade Bone: 5/10
Melanoma B16 cells; three weeks after transplantation, control 8/10
  Number of mice where metastasis was observed: Vertebral Column, Lumbar Region: 4/10
Melanoma B16 cells; [4]
  Number of mice where metastasis was observed: Pectoral Region, Rib: 5/10
  Number of mice where metastasis was observed: Vertebral Column, Pectoral Region: 6/10
[1]; oral 1 mg per kg per day
  Life prolongation effect against liver metastasis (in words): remarkable life prolongation effect
[1]; oral 1 mg per kg per day in physiological saline, started one day after transplantation, control 16.0
  Median Survival Time: 31.0 days
[1]; survival time of drug-administered group to control group, oral 1 mg per kg per day
  T/C (life prolongation rate): 194%
[2]; intermittent intravenous administration, 6.67 mg per kg three times every 7 days
  Tumor Growth Delay Percentage: 265%
[2]; low-dose daily administration
  Growth of cancer (in words): inhibits growth of cancer
[2]; low-dose daily intravenous administration, 1.33 mg per kg for 5 consecutive days x 3 courses
  Tumor Growth Delay Percentage: >293%
[3]; 29 days after transplantation, oral 1 mg per kg per day each, cisplatin day 1-28, Aredia day 21-28, control 351.7 ng/mL
  hIgE Level in serum: 210.5 ng/mL
[3]; oral 1 mg per kg per day
  Effect on increase in hIgE level due to metastasis to bone (in words): inhibits the increase in hIgE level

Source: patent publication US20080069901A1, “Therapeutic Agent for Metastatic Cancer and Cancer Metastasis Inhibitor” (TMRC Co. , Ltd., priority 2004, published 2008)
